Laboratory results as given in patent US20250353819A1, “ARYL HYDANTOIN COMPOUNDS AND METHODS OF USE” (priority 2022, published 2025).

Key:
[1] = Kinetic solubility (nephelometry); assay type: physicochemical; conditions: aqueous buffer, kinetic from dmso stock; kinetic solubility, pH 6.5 phosphate buffer; read-out: Sol6.5
Experimental: Kinetic Solubility. Compounds in DMSO (10 mg/mL) were diluted into either pH 6.5 phosphate buffer or 0.01 M HCl (approx. pH 2.0) with the final DMSO concentration being 1%. Samples were then analysed via nephelometry to determine a solubility range (Bevan and Lloyd, 2000).

S. japonicum = S. japonicum infections in mice; assay type: in vivo
[2] = In vitro metabolic stability, dog microsomes; assay type: in vitro ADME; conditions: liver microsomes
Experimental: In Vitro Metabolic Stability. As described by Charman et al. (2020), metabolic stability assays were performed by incubating test compounds in liver microsomes at 37° C. and 0.4 mg/mL protein concentration. The metabolic reaction was initiated by the addition of an NADPH-regenerating system and quenched at various time points over a 60 min incubation period by the addition of acetonitrile containing diazepam as internal standard. Control samples (containing no NADPH) were included (and quenched at 2, 30 and 60 min) to monitor for potential degradation in the absence of cofactor.

[3] = Chemical stability (acid, base, H2O2); assay type: physicochemical
Experimental: Samples were neutralised and diluted to a nominal concentration of 100 μg/mL in 50% aq MeOH. […] A single degradation peak appeared in all the basic samples corresponding to the urea carboxylic acid hydrolysis product.

Binding to HLM = conditions: human liver microsomes

| Structure (SMILES) | solubility kinetic [1] [µg/mL] | ED50 (S. japonicum; Schistosoma japonicum, oral) [mg/kg] | clearance of S. japonicum infections (S. japonicum; single 25 mg/kg oral dose) | microsomal CLint [2] [µL/min/mg] | loss of parent compound, acidic conditions ([3]; 0.01 M and 0.1 M HCl, up to 48 h) | loss of parent compound, basic conditions ([3]; 0.01 M and 0.1 M NaOH, after 2 min) | loss of parent compound, 15% H2O2 ([3]; 15% H2O2 incubation) | fraction unbound (Binding to HLM) |
| --- | --- | --- | --- | --- | --- | --- | --- | --- |
| CC1(C)NC(=O)N(c2ccc(F)c(C(C)(F)F)c2)C1=O [Compound IC, 3-(3-(1,1-difluoroethyl)-4-fluorophenyl)-5,5-dimethylimidazolidine-2,4-dione] | > 100 | – | – | – | – | – | – | – |
| [2H]C([2H])([2H])C1(C([2H])([2H])[2H])NC(=O)N(c2ccc(F)c(C(C)(F)F)c2)C1=O [Compound IE, 3-(3-(1,1-difluoroethyl)-4-fluorophenyl)-5,5-bis(methyl-d3)imidazolidine-2,4-dione] | – | 6.7 | completely cleared | < 7 | minimal loss | significant loss | no significant loss | 1 |
